The results in this text go back to ChEMBL document CHEMBL1201862, “PubChem BioAssay data set” (2004).

Each structure is given as a SMILES string.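 Five concentrations, 48 hours, 96-well plates. The concentration for 50% growth inhibition is given as GI50.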 Activity calls are given as the source filed them. No stated cut-off is given here; in the data, active = GI50 up to about 1.1 µM and inactive = higher.

What all share (test): NCI-60 cell line screen, 48 h
In assay [1] the test system is XF498.
The subject of assay [2] is DMS-114.
Assay [3] has as its system DMS-273.
In assay [4] the test system is HOP-18.
Assay [5] concerns LXFL 529.
Assay [6] relates to M19-MEL.
The test system of assay [7] is SNB-78.
Assay [8] deals with KM-20L2.
Assay [9] deals with RXF 631.

Regarding `COc1ccc(CCc2ccccc2CC(=O)O)cc1`, the GI50 in assay [1], in [2], in assay [3], in assay [4], in assay [5] and in assay [6] was > 100 µM (inactive) in each case. In addition, the GI50 in assay [7] and in assay [8] was > 100 µM (inactive) in each case.
`COc1ccc(S(=O)(=O)NNS(C)(=O)=O)cc1OC`: the GI50 in [1], in assay [3], in assay [5], in assay [6] and in assay [8] was > 100 µM (inactive) each time.
For `CCOC(=O)C1=C(C)N(Cc2ccccc2)C(=O)C1CC#N` (stereo unspecified), the GI50 is < 0.01 µM (active) in [1]; 45.1 µM (inactive) in assay [2]; > 100 µM (inactive) in [3]; 17 µM (inactive) in assay [4]; 43.4 µM (inactive) in [5]; > 100 µM (inactive) in assay [6]. Moreover, the GI50 in assay [7] is 37.2 µM (inactive); in [8], > 100 µM (inactive).
In the case of `OC1=CN=COc2ccccc21`, the GI50 in [9], in assay [2], in assay [3], in [5], in assay [6] and in [7] was > 100 µM (inactive) in each case. Moreover, in [8], the GI50 was > 100 µM (inactive).
On to `CCCCCCCCCCCCCP(=O)(NCC(N)=O)OCC` (stereo unspecified), for which the GI50 in [9] is 18.9 µM (inactive); in [1] it was 19.1 µM (inactive); in assay [2], 15.2 µM (inactive); in [4], 2.38 µM (inactive); in [5], 16.8 µM (inactive); in assay [6] it was 19.7 µM (inactive). The results for the GI50 in assay [7] and in assay [8] were 20 µM (inactive) and 17.4 µM (inactive), respectively.
As to `O=C(Cc1ccccc1)NS(=O)(=O)c1ccccc1`, the GI50 in assay [9], in assay [1], in assay [2], in assay [3], in [4] and in [5] was > 100 µM (inactive) in each case. The GI50 in assay [7] and in assay [8] was > 100 µM (inactive) throughout.
For the molecule `CC[C@@H]1OC2(C)CC(S(=O)(=O)c3ccccc3)CC1O2` (stereo partly specified), the GI50 in assay [9], in assay [2], in [3], in [4], in assay [5] and in assay [6] was > 100 µM (inactive) in each case. Besides, the GI50 in [7] and in assay [8] was > 100 µM (inactive) throughout.
For the molecule `CC(=O)C1CC2(c3ccccc3)C(=O)c3ccccc3N2O1` (stereo unspecified), the GI50 in assay [1], in [2], in assay [3], in assay [4], in [5] and in [6] was > 100 µM (inactive) in each case. In addition, the GI50 in assay [7] and in assay [8] was > 100 µM (inactive) throughout.
Regarding `Nc1ccc(C(=O)N/C(=C\c2ccc3c(c2)OCO3)c2nc3c(O)nc(S)nc3[nH]2)cc1`, the GI50 in assay [9], in assay [1], in [5], in [6], in assay [7] and in [8] was > 100 µM (inactive) each time.
In the case of `COCC(C)(C)/N=C/N1Cc2cc3ccccc3nc2C1`, the GI50 in assay [1], in assay [2], in [4], in assay [6] and in assay [8] was > 100 µM (inactive) each time.
Turning to `CC(=O)N(C(C)=O)c1c(N)n(C)c(=O)[nH]c1=O`, the GI50 in [9], in [1], in [2], in assay [3], in [5] and in assay [6] was > 100 µM (inactive) in each case. Further, the GI50 in [8] is > 100 µM (inactive).
With `COC1=C(C(=O)OC(C)(C)C)[C@]2(C)C(C(=O)OC(C)(C)C)C(OC)=C(C(=O)OC(C)(C)C)[C@]2(C)C1C(=O)OC(C)(C)C` (stereo partly specified), the GI50 is > 100 µM (inactive) in assay [1]; 53.1 µM (inactive) in assay [2]; 97.7 µM (inactive) in assay [3]; > 100 µM (inactive) in assay [4]; > 100 µM (inactive) in assay [5]; > 100 µM (inactive) in assay [6]. In addition, the GI50 in assay [7] and in assay [8] was > 100 µM (inactive) in each case.
Turning to `O=C1/C(=C/c2ccccc2)CN(C(=O)Oc2ccccc2)C/C1=C\c1ccccc1`, the GI50 in assay [2] was 17.4 µM (inactive); in assay [3] it was 23.1 µM (inactive); in [4] it was > 100 µM (inactive); in assay [5], 50.6 µM (inactive); in assay [6], 65.5 µM (inactive); in assay [7] it was 20.4 µM (inactive). Further, the GI50 in assay [8] is > 100 µM (inactive).
For `CC12C(=O)N(CCN)C(=O)C1C1c3ccccc3C2c2ccccc21` (stereo unspecified), the GI50 in assay [1], in assay [2], in [3], in [4], in assay [5] and in assay [6] was > 100 µM (inactive) each time. Besides, the GI50 in [7] and in assay [8] was > 100 µM (inactive) in each case.
On to `Cn1c2ccccc2n2c(=O)c3c(c(C#N)c12)CCCC3`, for which the GI50 in [1], in assay [2], in [3], in assay [6], in assay [7] and in [8] was > 100 µM (inactive) throughout.
For the molecule `CN(C)c1ccc(/C=C(/NC(=O)c2ccccc2)c2nc3cc(Cl)ccc3[nH]2)cc1`, the GI50 was 32.4 µM (inactive) in [3]; 2.42 µM (inactive) in assay [4]; 30.1 µM (inactive) in assay [5]; 27.5 µM (inactive) in assay [6]; 63.1 µM (inactive) in [7]; 27.7 µM (inactive) in assay [8].
Regarding `CCOC(=O)C(C)(C)Oc1ccc2c(-c3ccc(Cl)cc3)cc(=O)oc2c1`, the GI50 in assay [9], in assay [2], in assay [3], in assay [5], in assay [6] and in assay [8] was > 100 µM (inactive) in each case.
In the case of `Nc1ccccc1[S+]([O-])c1ccccc1` (stereo unspecified), the GI50 in assay [1], in [2], in assay [3], in [4], in assay [5] and in assay [6] was > 100 µM (inactive) throughout. Besides, in assay [8], the GI50 is > 100 µM (inactive).
Regarding `C=C(CN(C)C)C(=O)c1ccccc1OC`, the GI50 in assay [1] was 17.9 µM (inactive); in assay [2] it was 21.1 µM (inactive); in [3], 17.2 µM (inactive); in assay [4] it was 6.08 µM (inactive); in assay [5], 3.68 µM (inactive); in [6], 16.3 µM (inactive). For the same molecule, the values for the GI50 in [7] and in assay [8] were 25.6 µM (inactive) and 26.2 µM (inactive), respectively.
As to `O=C1C=CN(C2OC(CO)C(O)C2O)C(=O)C1` (stereo unspecified), the GI50 in [3] is 1730 µM (inactive); in [4] it was 557 µM (inactive); in assay [6], 35.6 µM (inactive); in [8], 67.3 µM (inactive).
Consider `Cc1cc(Cl)ccc1NC1=NC(=O)C(CC(=O)Nc2ccc([N+](=O)[O-])cc2[N+](=O)[O-])S1` (stereo unspecified), for which the GI50 in [1] is 20.6 µM (inactive); in assay [2], 19.9 µM (inactive); in assay [3], 30.5 µM (inactive); in assay [5] it was 18.8 µM (inactive); in [6], 25.9 µM (inactive); in assay [7], 28.6 µM (inactive). The GI50 in assay [8] was 31.1 µM (inactive).
Turning to `CCC(C)CC(C)CC(C)/C=C(\C)C1=C(C)CC(C)(O)O1` (stereo unspecified), the GI50 was > 100 µM (inactive) in [9]; 64.1 µM (inactive) in [2]; 98.4 µM (inactive) in [3]; > 100 µM (inactive) in [4]; 53 µM (inactive) in assay [5]; > 100 µM (inactive) in assay [6]. Moreover, the GI50 in assay [7] is 86.9 µM (inactive).
Regarding `C[C@@H]1C2=CC[C@@]3(C)C(CCC3[C@H](C)[C@H]3C[C@@]4(C)O[C@@](c5cccnc5)(O3)OC4(C)C)[C@@H]2C2OC2[C@@]12CCC(=O)O2` (stereo partly specified), the GI50 in [2] was 33 µM (inactive); in assay [3], 37.5 µM (inactive); in assay [4] it was 20.5 µM (inactive); in [5], 35.5 µM (inactive); in [6] it was 41.2 µM (inactive); in [7], 85.1 µM (inactive). The GI50 in assay [8] was 31.8 µM (inactive).
`COC(=O)[C@@]12OC[C@]34C([C@@H](O)C1O)[C@@]1(C)CC(=O)C(O)=C(C)C1C[C@H]3OC(=O)[C@H](OC(=O)/C=C(/c1ccccc1)C(F)(F)F)[C@H]42` (stereo partly specified): the GI50 in assay [1] is 2.22 µM (inactive); in assay [2], 4.19 µM (inactive); in [3] it was 0.989 µM (active); in [4], 6.3 µM (inactive); in [5], 2.65 µM (inactive); in [6], 1.19 µM (inactive). For the same molecule, the GI50 in [7] is 9.1 µM (inactive); in assay [8], 3.92 µM (inactive).
In the case of `C=C[C@]1(C)CC(O)C2C(=C)C(=O)OC2[C@H]1C(=C)C=O` (stereo partly specified), the GI50 in assay [2] is 5.73 µM (inactive); in assay [4] it was 5.41 µM (inactive); in assay [5], 1.64 µM (inactive); in [6] it was 2.52 µM (inactive); in [7], 3.56 µM (inactive); in assay [8], 5.47 µM (inactive).
Turning to `CCC1(O)C(=O)OCc2c1cc1n(c2=O)Cc2cc3ccc(CO)cc3nc2-1` (stereo unspecified), the GI50 in [9] was 3.31 µM (inactive); in assay [1], 1.29 µM (inactive); in assay [2], 1.82 µM (inactive); in assay [3], 1.12 µM (active); in assay [4] it was 5.46 µM (inactive); in assay [5] it was 26.7 µM (inactive). In addition, the GI50 in [6] was 3.71 µM (inactive); in [8], 13.5 µM (inactive).
